# Source: patent US20210154170A1, “METHODS OF TREATING NEUROPATHIC PAIN” (Biogen MA Inc., priority 2018, published 2021)
# Like-named read-outs stand apart in the source and are kept apart here.
# What was measured:
# [1] = Free fraction of Example 1 in plasma; type: in vitro ADME; conditions: human
# [2] = tested on: healthy participants; assay: Phase 1 ABPM study, safety (adverse events, ECG); type: in vivo, human
# Method: (§1) This was a Phase 1, randomized, double-blind, placebo-controlled, repeat dose, 2-period cross-over study to investigate the effect of BIIB074 300-400 mg bid on ambulatory blood pressure (ABP) in healthy participants (FIG. 2). The study comprised: screening (to occur a maximum of 30 days before the first baseline assessment); two 36-day treatment periods, each preceded by a baseline visit and separated by a 7-day washout (to minimize possible carry over effects); and a follow-up period of 7-14 days after last dose. Prior to this study, no females had received BIIB074; for this reason, a single dose BIIB074 session at the dose level of 400 mg was also conducted in female participants one week prior to the period 1 baseline visit. Following this session, some participants were predicted to exceed the predefined PK limit (area under the plasma concentration-time curve [AUC] 97 μg·h/mL) when receiving 400 mg bid at steady state. Therefore, in the subsequent phases of the study, all female participants received a lower dose of 300 mg bid (males received 400 mg bid).
# Safety was assessed through monitoring of adverse events (AEs), vital signs, electrocardiogram (ECG), and laboratory safety tests (including clinical chemistry).
# (§2) The safety population was the primary analysis population for this study and included all participants who received one or more doses of BIIB074. The PK population was defined as participants in the safety population for whom a PK sample was obtained and analyzed.
# [3] = Phase 1 ABPM study, pharmacokinetics; type: in vivo, human
# Method: as §1
# The primary endpoint was change in 24 h average SBP and DBP from baseline to day 36 as determined by ABPM. Secondary outcome measures included: change in 24 h average SBP and DBP from baseline to days 4 and 15; change in average SBP and DBP within a 12 h dosing interval from baseline to days 14 and 35 (inpatient); change in 24 h average ambulatory heart rate from baseline to days 4, 15 and 36; proportion of participants whose 24 h SBP and DBP increased by <5, 5-9, 10-14, 15-19, and >20 mm Hg compared with baseline; PK parameters of BIIB074 following a single oral dose in healthy female participants, and following repeated oral doses given twice daily to healthy male and female participants; PK/pharmacodynamic (PD) analyses to examine the correlation between ABP and plasma levels and/or metrics of the systemic exposure of BIIB074.
# ABPM data were analyzed using a repeated measures mixed effects model, whereby fixed effects were treatment, day, treatment*day, period, average baseline*day, period adjusted baseline*day, sex and treatment*sex; random effect was subject; and repeated effect was day. All summary statistics were carried out using SAS 8.02 for UNIX running under the Harmonisation of Analysis and Reporting Program (HARP) environment. PK parameters were calculated by standard non-compartmental analysis according to working practices and using Win Nonlin Pro v. 5.2.
# as §2
# [4] = tested on: human hepatocytes; assay: Metabolism in human hepatocytes; type: in vitro ADME
# [5] = tested on: dogs; assay: Preclinical safety pharmacology, cardiovascular parameters; type: in vivo, dog; conditions: data not shown
# Excerpt: (§3) The 36 day treatment duration in this study was rationally designed to determine whether tolerance developed for any potential effects of BIIB074 on SBP or DBP, since BP effects resolved by day 28 in the earlier phase 1 trial. The data from this study show a slight trend towards a decrease in the BP difference between BIIB074 and placebo between day 4 and day 35, although differences were minimal at all time points. […] Thus, the body of evidence, encompassing clinical and preclinical studies, supports safety and minimal effects of BIIB074 on BP/cardiovascular parameters.
# [6] = tested on: rats; assay: Tyramine-induced hypertension; type: in vivo, rat; conditions: data not shown
# Excerpt: as §3
# [7] = tested on: patients with lumbosacral radiculopathy; conditions: PLSR, 350 mg bid, Phase 2, cited from earlier work
# [8] = tested on: trigeminal neuralgia; conditions: TN, 150 mg tid; cited from earlier work
# [9] = tested on: healthy participants; assay: Phase 1 cross-over study, ambulatory blood pressure monitoring (ABPM); type: in vivo, human; conditions: one-sided 95% CI excluding effect ≥5 mmHg
# [10] = 400 mg single dose, females, N = 22
# [11] = 300-400 mg bid repeat dosing, N = 54
compound,measurement,setting,value
"Cl.NC(=O)[C@@H]1CC[C@H](c2ccc(OCc3ccccc3F)cc2)N1 [Example 1, (5R)-5-(4-{[(2-Fluorophenyl)methyl]oxy}phenyl)-L-prolinamide hydrochloride]",fraction unbound,[1]; listed as 150 mg tid,0.032
same,fraction unbound,[1]; listed as 200 mg bid,0.036
same,fraction unbound,[1]; listed as 250 mg tid,0.032
same,fraction unbound,[1]; listed as 350 mg bid,0.032
same,Severity of all AEs,[2]; 400 mg single dose in females,mild in nature
same,Diarrhoea,[2]; [10],0 n (%)
same,Dizziness,[2]; [10],5 (23) n (%)
same,Fatigue,[2]; [10],0 n (%)
same,Headache,[2]; [10],6 (27) n (%)
same,Hypersensitivity (allergy symptoms),[2]; [10],0 n (%)
same,Nasopharyngitis,[2]; [10],0 n (%)
same,Nausea,[2]; [10],3 (14) n (%)
same,Oropharyngeal pain,[2]; [10],0 n (%)
same,Pain in extremity,[2]; [10],0 n (%)
same,Participants with any AE,[2]; [10],12 (55) n (%)
same,Pyrexia,[2]; [10],0 n (%)
same,Rash,[2]; [10],0 n (%)
same,Vomiting,[2]; [10],1 (5) n (%)
same,AEs of moderate intensity,[2]; 300-400 mg bid repeat dose,9 AEs
same,AEs of severe intensity,[2]; 300-400 mg bid repeat dose,2 AEs
same,Diarrhoea,[2]; [11],1 (2) n (%)
same,Dizziness,[2]; [11],6 (11) n (%)
same,Fatigue,[2]; [11],2 (4) n (%)
same,Hypersensitivity (allergy symptoms),[2]; [11],2 (4) n (%)
same,Nasopharyngitis,[2]; [11],6 (11) n (%)
same,Nausea,[2]; [11],4 (7) n (%)
same,Oropharyngeal pain,[2]; [11],2 (4) n (%)
same,Pain in extremity,[2]; [11],0 n (%)
same,Participants with any AE,[2]; [11],25 (46) n (%)
same,Pyrexia,[2]; [11],2 (4) n (%)
same,Rash,[2]; [11],1 (2) n (%)
same,Vomiting,[2]; [11],3 (6) n (%)
same,Headache,"[2]; 300-400 mg bid repeat dosing, N = 54, listed as BIIB074, hydrochloride",11 (20) n (%)
same,Tolerability,"[2]; 300-400 mg bid, 36 days",well tolerated
same,ECG changes,[2]; day 1-35,no clinically significant ECG changes
same,Participants withdrawn due to AEs while on BIIB074,[2]; of 60 enrolled,5 participants
same,Serious AEs,[2]; whole study,No serious AEs
same,AUCex,"[3]; 400 mg single dose, female",15.2%
same,tmax,"[3]; Day 1, 300 mg bid, female",1.50 h
same,tmax,"[3]; Day 14, 300 mg bid, female",1.50 h
same,AUC(0-12),"[3]; Day 14, 400 mg bid, male",32100 (23.5) ng · h/mL
same,Cmax,"[3]; Day 35, 300 mg bid, female",3990 (26.6) ng/mL
same,AUC(0-24) in males (400 mg bid) higher than in females (300 mg bid),"[3]; days 14 and 35, on average",10%
same,Cmax in males (400 mg bid) higher than in females (300 mg bid),"[3]; days 14 and 35, on average",11-19%
same,Dose-normalized AUC lower in male than in female participants,"[3]; repeat dosing, days 14 and 35",17-18%
same,Dose-normalized Cmax lower in male than in female participants,"[3]; repeat dosing, days 14 and 35",11-17%
same,Main route of metabolism,[4],mainly metabolized by uridine diphosphate glucuronosyltransferases (UGTs)
same,Effects on cardiovascular parameters,[5],no effects
same,Effects on tyramine-induced hypertension,[6],no effects
same,Clinical efficacy,[7]; hydrochloride,EFFICACY OBSERVED in
same,Clinical efficacy,"[7]; listed as CNV1014802, hydrochloride",demonstrated clinical benefit
same,Clinical efficacy,[8],EFFICACY OBSERVED in TN
same,"Non-inferiority to placebo, inpatient ABPM",[9],non-inferiority of BIIB074 compared with placebo was demonstrated
